Experimental findings from paper PMC10590383, “Repurposing conformational changes in ANL superfamily enzymes to rapidly generate biosensors for organic and amino acids” (Nature Communications, 2023) are described below.

The assay concerns the target T1, GECFINDER-Phe3 (Aneurinibacillus migulanus, UniProt P0C061).
T1 construct: gene grsA; GrsA-PheA-PCP; cpEGFP inserted in hinge B, linkers VF-QS
T1 sequence (P0C061 1-617): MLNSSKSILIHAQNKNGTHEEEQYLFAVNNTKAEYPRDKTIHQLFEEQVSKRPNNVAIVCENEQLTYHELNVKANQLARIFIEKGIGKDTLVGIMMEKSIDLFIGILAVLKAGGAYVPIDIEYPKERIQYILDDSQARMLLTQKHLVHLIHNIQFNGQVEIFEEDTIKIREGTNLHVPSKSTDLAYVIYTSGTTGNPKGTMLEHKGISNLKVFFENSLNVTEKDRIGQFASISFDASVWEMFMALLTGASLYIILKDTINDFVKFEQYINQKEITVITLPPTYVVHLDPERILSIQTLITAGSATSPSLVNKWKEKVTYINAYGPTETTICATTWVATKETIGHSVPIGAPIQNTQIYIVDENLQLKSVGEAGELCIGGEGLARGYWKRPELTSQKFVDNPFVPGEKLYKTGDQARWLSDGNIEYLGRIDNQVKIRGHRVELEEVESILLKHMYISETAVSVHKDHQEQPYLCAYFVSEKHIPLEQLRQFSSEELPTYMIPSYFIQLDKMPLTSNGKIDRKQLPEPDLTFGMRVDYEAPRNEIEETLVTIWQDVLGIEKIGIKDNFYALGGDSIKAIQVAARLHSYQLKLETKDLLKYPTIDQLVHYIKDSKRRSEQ
Put plainly: Fluorescence dose-response of purified […]-Phe3 with phenylalanine in 100 mM Tris at pH 8.5, room temperature, 1 mM ATP, 2.5 mM MgCl2. The format is biochemical. Particulars: n = 3. The source says:
As cpEGFP is sensitive to pH, we conducted a dose-response curve and fluorescence intensity analysis of […]-Phe3 at varying pH levels. […] In addition, we expanded the range of ligand-binding domains (LBDs) applicable to […] and attempted optimization of insertion sites for cpEGFP with limited success. Please refer to Supplemental Note 1 for detailed information.
The study conducted dose–response curve, substrate specificity, and fluorescent spectrum analyses in 100-mM Tris buffer (pH = 7.5), while pH stability experiments were performed in 100-mM Tris buffer at three different pH values (6.5, 7.5, and 8.5) at room temperature. […] Fluorescent signals were detected using a Microplate Reader (Synergy H4, Bio Tek) at an excitation/emission wavelength of 460 nm/510 nm or 480 nm/510 nm. The dose-response curve was determined immediately after the addition of the analyte. The total duration of the measurement was 15 min, with readings taken at one-minute intervals. The dose-response curve was plotted using the fluorescence values obtained after achieving stability in the fluorescence signal. […] The thermal stability of […] was analyzed using the UNcle multifunctional protein stability analysis system. […] Absolute fluorescence quantum yields were measured using an absolute photoluminescence quantum yield spectrometer (FS5, Edinburgh). […]

For orientation: EC50 means the concentration at which the effect is half-maximal. Take `N[C@@H](Cc1ccccc1)C(=O)O` [Phe, phenylalanine]: the half-maximal effective concentration (EC50) amounted to 2380 nM.
